The text below walks through data of PubChem BioAssay AID1745844 (Carcinogenic Potency Database (CPDB), 2022).

The data set concerns rodent lifetime carcinogenesis bioassay, tumor incidence TD50. Briefly: chronic cancer bioassays in animals – CPDB, compiled studies (AID 1745844).
Setting [1] is: mouse, strain B6C3F1, females, by gavage, site: any site (literature study), lesion: several types, types named in the paper, dosed 103 weeks, study length 104 weeks.
The mark [2] stands for this setting: mouse, strain B6C3F1, females, by gavage, site: liver, lesion: hepatocellular adenoma + hepatocellular carcinoma + neoplastic nodule, dosed 103 weeks, study length 104 weeks.
The mark [3] stands for this setting: mouse, strain B6C3F1, males, by gavage, site: liver, lesion: hepatocellular adenoma + hepatocellular carcinoma + neoplastic nodule, dosed 103 weeks, study length 104 weeks.

Active and inactive are the calls of the source. The rule behind the calls is not given here.

For the compound `CC1=CC(=O)CC(C)(C)C1`, the carcinogen call under setting [1] was “negative (inactive)”. Also, the TD50 is, setting by setting: under setting [2], 2740 mg/kg/day; (mouse, strain B6C3F1, males, by gavage, site: all sites, lesion: leukemia, NOS + malignant lymphoma, histiocytic type + malignant lymphoma, mixed type + malignant lymphoma, lymphocytic type, dosed 103 weeks, study length 104 weeks) 236 mg/kg/day; (mouse, strain B6C3F1, males, by gavage, site: all sites, lesion: malignant lymphoma, histiocytic type + malignant lymphoma, mixed type + malignant lymphoma, lymphocytic type, dosed 103 weeks, study length 104 weeks) 203 mg/kg/day; (mouse, strain B6C3F1, males, by gavage, site: all sites, lesion: malignant lymphoma, histiocytic type, dosed 103 weeks, study length 104 weeks) 244 mg/kg/day; under setting [3], 573 mg/kg/day; (mouse, strain B6C3F1, males, by gavage, site: liver, lesion: hepatocellular adenoma + hepatocellular carcinoma, dosed 103 weeks, study length 104 weeks) 573 mg/kg/day. Also, the TD50 came to 840 mg/kg/day (mouse, strain B6C3F1, males, by gavage, site: skin + subcutaneous tissue, lesion: fibroma + fibrosarcoma, dosed 103 weeks, study length 104 weeks); 882 mg/kg/day (mouse, strain B6C3F1, males, by gavage, site: skin + subcutaneous tissue, lesion: fibroma + neurofibrosarcoma + fibrosarcoma + sarcoma, dosed 103 weeks, study length 104 weeks); 1210 mg/kg/day (mouse, strain B6C3F1, males, by gavage, site: skin + subcutaneous tissue, lesion: neurofibrosarcoma + fibrosarcoma + sarcoma, dosed 103 weeks, study length 104 weeks); 1210 mg/kg/day (mouse, strain B6C3F1, males, by gavage, site: subcutaneous tissue, lesion: fibroma, dosed 103 weeks, study length 104 weeks); 703 mg/kg/day (mouse, strain B6C3F1, males, by gavage, site: subcutaneous tissue, lesion: fibrosarcoma + fibroma + neurofibrosarcoma + sarcoma, dosed 103 weeks, study length 104 weeks); 654 mg/kg/day (mouse, strain B6C3F1, males, by gavage, site: subcutaneous tissue, lesion: fibrosarcoma + fibroma, dosed 103 weeks, study length 104 weeks). Further, the TD50 is, setting by setting: (mouse, strain B6C3F1, males, by gavage, site: subcutaneous tissue, lesion: fibrosarcoma + neurofibrosarcoma + sarcoma, dosed 103 weeks, study length 104 weeks) 1260 mg/kg/day; (mouse, strain B6C3F1, males, by gavage, site: subcutaneous tissue, lesion: fibrosarcoma, dosed 103 weeks, study length 104 weeks) 1170 mg/kg/day; (rat, strain Fischer 344, females, by gavage, site: any site (literature study), lesion: several types, types named in the paper, dosed 103 weeks, study length 105 weeks) 16600 mg/kg/day (inactive); (rat, strain Fischer 344, males, by gavage, site: any site (literature study), lesion: several types, types named in the paper, dosed 103 weeks, study length 105 weeks) 237 mg/kg/day; (rat, strain Fischer 344, males, by gavage, site: kidney + preputial gland, lesion: tubular-cell adenoma + tubular-cell adenocarcinoma + carcinoma, NOS, dosed 103 weeks, study length 105 weeks) 774 mg/kg/day; (rat, strain Fischer 344, males, by gavage, site: kidney, lesion: tubular-cell adenoma + tubular-cell adenocarcinoma, dosed 103 weeks, study length 105 weeks) 1210 mg/kg/day. The TD50 is 9080 mg/kg/day (rat, strain Fischer 344, males, by gavage, site: liver, lesion: hepatocellular adenoma + hepatocellular carcinoma + neoplastic nodule, dosed 103 weeks, study length 105 weeks) and 2250 mg/kg/day (rat, strain Fischer 344, males, by gavage, site: preputial gland, lesion: carcinoma, NOS, dosed 103 weeks, study length 105 weeks).

On to `Cc1ccccc1N=O`, for which the TD50 runs as follows: (rat, strain Fischer 344, males, in feed, site: liver, lesion: hepatoma, dosed 72 weeks, study length 93 weeks) 59.2 mg/kg/day; (rat, strain Fischer 344, males, in feed, site: liver, lesion: several types, types named in the paper, dosed 72 weeks, study length 93 weeks) 50.7 mg/kg/day; (rat, strain Fischer 344, males, in feed, site: peritoneal cavity, lesion: mesothelioma, dosed 72 weeks, study length 93 weeks) 195 mg/kg/day; (rat, strain Fischer 344, males, in feed, site: peritoneal cavity, lesion: spindle-cell sarcoma, dosed 72 weeks, study length 93 weeks) 303 mg/kg/day; (rat, strain Fischer 344, males, in feed, site: skin, lesion: fibroma, dosed 72 weeks, study length 93 weeks) 55.8 mg/kg/day; (rat, strain Fischer 344, males, in feed, site: spleen, lesion: fibroma, dosed 72 weeks, study length 93 weeks) 87 mg/kg/day. Besides, the TD50 by setting is: (rat, strain Fischer 344, males, in feed, site: urinary bladder, lesion: papilloma, dosed 72 weeks, study length 93 weeks) 78.8 mg/kg/day; (rat, strain Fischer 344, males, in feed, site: urinary bladder, lesion: several types, types named in the paper, dosed 72 weeks, study length 93 weeks) 71.5 mg/kg/day.

Take `COC(N)=O`: the carcinogen call under setting [1] was “negative (inactive)”. The TD50 reads like this: under setting [2], 4700 mg/kg/day; (mouse, strain B6C3F1, males, by gavage, site: any site (literature study), lesion: several types, types named in the paper, dosed 103 weeks, study length 104 weeks) 5220 mg/kg/day (inactive); under setting [3], 5080 mg/kg/day; (rat, strain Fischer 344, females, by gavage, site: liver, lesion: hepatocellular adenoma + hepatocellular carcinoma + neoplastic nodule, dosed 103 weeks, study length 104 weeks) 839 mg/kg/day; (rat, strain Fischer 344, females, by gavage, site: liver, lesion: hepatocellular carcinoma + neoplastic nodule, dosed 103 weeks, study length 104 weeks) 839 mg/kg/day; (rat, strain Fischer 344, females, by gavage, site: liver, lesion: hepatocellular carcinoma, dosed 52 weeks, study length 52 weeks) 53.4 mg/kg/day. Moreover, the TD50 is, setting by setting: (rat, strain Fischer 344, females, by gavage, site: liver, lesion: hepatocellular carcinoma, dosed 78 weeks, study length 78 weeks) 68.4 mg/kg/day; (rat, strain Fischer 344, females, by gavage, site: liver, lesion: neoplastic nodule, dosed 52 weeks, study length 52 weeks) 21.3 mg/kg/day; (rat, strain Fischer 344, females, by gavage, site: liver, lesion: neoplastic nodule, dosed 78 weeks, study length 78 weeks) 159 mg/kg/day; (rat, strain Fischer 344, females, by gavage, site: liver, lesion: neoplastic nodule, dosed 103 weeks, study length 104 weeks) 979 mg/kg/day; (rat, strain Fischer 344, males, by gavage, site: liver, lesion: hepatocellular adenoma + hepatocellular carcinoma + neoplastic nodule, dosed 103 weeks, study length 104 weeks) 2030 mg/kg/day; (rat, strain Fischer 344, males, by gavage, site: liver, lesion: hepatocellular carcinoma + neoplastic nodule, dosed 103 weeks, study length 104 weeks) 2030 mg/kg/day. Further, the TD50 (rat, strain Fischer 344, males, by gavage, site: liver, lesion: hepatocellular carcinoma, dosed 52 weeks, study length 52 weeks) was 30.4 mg/kg/day; the TD50 (rat, strain Fischer 344, males, by gavage, site: liver, lesion: hepatocellular carcinoma, dosed 78 weeks, study length 78 weeks) is 47.8 mg/kg/day; the TD50 (rat, strain Fischer 344, males, by gavage, site: liver, lesion: neoplastic nodule, dosed 52 weeks, study length 52 weeks) was 40.7 mg/kg/day; the TD50 (rat, strain Fischer 344, males, by gavage, site: liver, lesion: neoplastic nodule, dosed 78 weeks, study length 78 weeks) is 494 mg/kg/day.

Consider `[O]=[Cr][O][Cr]=[O]`, for which the carcinogen call is, setting by setting: (rat, strain BD, both sexes, in feed, site: hypophysis, lesion: adenoma, dosed 85 weeks, study length 187 weeks) “negative (inactive)”; (rat, strain BD, both sexes, in feed, site: mammary gland, lesion: carcinoma, dosed 85 weeks, study length 187 weeks) “negative (inactive)”. Also, where the note is “rat, strain BD, both sexes, in feed, site: mammary gland, lesion: fibroadenoma, dosed 85 weeks, study length 187 weeks”, the TD50 was 237000 mg/kg/day (inactive).
